Experiments:
[1] = test system: 5-LO; assay: inhibition of 5-LO (5-HETE production) in intact RBL-1 cells (whole cell); assay type: cell-based, Rat; details: Table A
Experimental: (§1) The compounds of the invention were evaluated for their ability to inhibit the production of the arachidonic acid product 5-HETE in broken and whole cell models. Since this is the first step of leukotriene biosynthesis, a reduction in the production of 5-HETE is directly attributable to inhibition of 5-lipoxygenase, where the standard concentration is 3.0 μM. If the IC50 of the whole cell assay is smaller than the IC50 of the broken cell model, it is an indication that the compounds are inhibiting the cooperation of FLAP and 5-lipoxygenase.
The ability to inhibit 5-LO and CO in intact RBL-1 cells was also evaluated. RBL-1 cells were maintained in culture in minimal essential medium (Bio*Whittaker, Walkersville, Md.), containing 12.5% fetal calf serum, 10 mg/mL streptomycin, 10 I.U./mL penicillin G, […] gentamycin and 2 mM L-glutamine (Bio*Whittaker, Walkersville, Md.). Cells were collected by centrifugation, washed once in HBSS, and resuspended at a concentration of 1×10^5 cells/mL. Cells were incubated in the presence of vehicle or drug then centrifuged at 800×g for 10 minutes at 4° C. The supernatant was removed by aspiration and the cells were resuspended in 0.5 mL of HBSS. The reaction was started by the addition of 20 μg/mL of calcium ionophore A 23187 (mixed calcium and magnesium salts, Calbiochem, La Jolla Calif.) and allowed to proceed for 15 minutes, then stopped by plunging the tubes into a slush ice bath. The conversion of AA to 5-LO products was initiated by the addition of 10 μL (50 uCi) of 1-^14 C-AA. Products were isolated by acidification and extraction, followed by thin layer chromatography analysis as described above. Radioactive areas corresponding to authentic 5-LO (5-HETE) and CO (PGD2) products were quantitated by the Bioscan 2000 Imaging System and the IC50 was calculated as above.

[2] = biological target: T1, 5-lipoxygenase (Rattus norvegicus, UniProt P12527); assay: inhibition of 5-HETE production in broken RBL-1 cells (isolated enzyme); assay type: biochemical; details: Table A, broken RBL-1 cell supernatant; for inhibition at 3 µM: read-out: Isolated Enzyme % Inhib.; for inhibition at 3 µM / Isolated Enzyme % Inhib.: 3 μM
T1 construct: The pellet was discarded and the supernatant was saved as the source of enzymes; endogenous in cells; host or cells: RBL-1 (rat basophilic leukemia) cells, homogenate supernatant
T1 sequence (P12527 1-673): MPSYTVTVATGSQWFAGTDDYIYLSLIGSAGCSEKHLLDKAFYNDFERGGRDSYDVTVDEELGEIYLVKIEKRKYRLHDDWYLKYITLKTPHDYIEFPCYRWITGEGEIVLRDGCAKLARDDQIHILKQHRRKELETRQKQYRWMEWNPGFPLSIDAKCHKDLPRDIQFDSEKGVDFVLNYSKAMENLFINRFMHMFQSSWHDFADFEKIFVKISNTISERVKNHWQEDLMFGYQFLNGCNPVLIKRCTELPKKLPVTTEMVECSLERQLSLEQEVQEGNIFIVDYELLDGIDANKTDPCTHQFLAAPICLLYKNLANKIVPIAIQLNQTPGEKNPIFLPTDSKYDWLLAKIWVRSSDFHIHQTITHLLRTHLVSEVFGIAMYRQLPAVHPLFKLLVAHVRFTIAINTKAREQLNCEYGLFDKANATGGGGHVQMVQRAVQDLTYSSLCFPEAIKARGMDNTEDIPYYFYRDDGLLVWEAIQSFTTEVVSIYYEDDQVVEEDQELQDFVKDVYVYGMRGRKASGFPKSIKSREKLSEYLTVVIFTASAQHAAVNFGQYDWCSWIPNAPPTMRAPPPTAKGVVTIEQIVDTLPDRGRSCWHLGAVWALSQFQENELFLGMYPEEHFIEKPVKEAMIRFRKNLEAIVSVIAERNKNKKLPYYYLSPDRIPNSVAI
Experimental: as §1
Rat basophilic leukemia cells (RBL-1; 5×10^7 viable cells/mL) were disrupted by homogenization on ice (four 20 sec bursts) with a Brinkman polytron. Complete cell breakage was verified microscopically. The homogenate was then centrifuged at 9,220×g for 48 minutes at 4° C. The pellet was discarded and the supernatant was saved as the source of enzymes. The supernatant was pre-incubated for five minutes at 37° C. in the presence of 2 mM of CaCl2 and compound or vehicle (1% DMSO). The conversion of AA into products by CO and LO was initiated by adding 10 μL (50 μCi) of 1-^14 C-AA to each tube and incubated at 37° C. for 20 minutes. The reaction was stopped by adjusting the pH of each sample to 3 to 3.5 with 2M formic acid. Samples were extracted with three volumes of chloroform to isolate the products of 5-LO formed during the reaction. Fractions were dried under nitrogen, then resuspended in 40 μL of chloroform and spotted onto silica gel HL plates. The plates were developed in A-9 solvent. The dried plates were analyzed using a Bioscan Imaging TLC scanner to determine the percentage of radiolabelled AA converted to 5-HETE (LO product) in each sample. The percentage of inhibition was calculated by:
[1-(5-HETE test)]/5-HETE control×100=% inhibition
The IC50 was determined using a curve fit in Cricket Graph (Computer Associated), which provided the equation of the regressed line used in the calculation.

Row | IC50 [1] [nM] | inhibition at 3 µM [2] [%] | Isolated Enzyme % Inhib. [2] [%] | IC50 [2] [nM] | Structure (SMILES)
1 | 5200 | 0 | – | – | O=C(O)CCc1cc(-c2ccc(Cl)cc2)n(-c2ccc(OCc3ccc4ccccc4n3)cc2)n1 [Cpd 15]
2 | 540 | 87 | – | – | COc1ccc(-n2nc(CCC(=O)N(C)O)cc2-c2ccc(OCc3ccc4ccccc4n3)cc2)cc1 [Cpd 16]
3 | 1300 | 31 | – | – | OCCc1cc(-c2ccc(Cl)cc2)n(-c2ccc(OCc3ccc4ccccc4n3)cc2)n1 [Cpd 3]
4 | 2000 | – | 24 | – | COc1ccc(-n2nc(CCC(=O)O)cc2-c2ccc(OCc3ccc4ccccc4n3)cc2)cc1 [Cpd 14]
5 | 490 | – | 93 | 210 | CN(O)C(=O)CCc1cc(-c2ccc(Cl)cc2)n(-c2ccc(OCc3ccc4ccccc4n3)cc2)n1 [Cpd 7, 3-{5-(4-Chlorophenyl)-N-hydroxy-N-methyl-1-[4-(2-quinolyl)methoxyphenyl]pyrazol-3-yl}propanamide]
6 | 6500 | 32 | – | – | Cc1cc(-c2ccc(Cl)cc2)n(-c2ccc(OCc3ccc4ccccc4n3)cc2)n1 [Cpd 11]
7 | 390 | 15 | – | – | O=C(O)Cc1cc(-c2ccc(Cl)cc2)n(-c2ccc(OCc3ccc4ccccc4n3)cc2)n1 [Cpd 2, 2-[5-(4-Chlorophenyl)-1-(4-(2-quinolyl)methoxyphenyl)-pyrazol-3-yl]acetic acid]
8 | 13400 | 29 | – | – | CCOC(=O)Cc1cc(-c2ccc(Cl)cc2)n(-c2ccc(OCc3ccc4ccccc4n3)cc2)n1 [Cpd 1]
9 | 550 | 44 | – | – | ON=CCCc1cc(-c2ccc(Cl)cc2)n(-c2ccc(OCc3ccc4ccccc4n3)cc2)n1 [Cpd 9, 5-(4-Chlorophenyl)-3-oximino 1-(4-(2-quinolyl)methoxy)phenyl)-pyrazol-3-yl]propanal.0.25 Hydrate]
10 | – | 0 | – | – | O=C(O)CCc1cc(-c2ccc(OCc3ccc4ccccc4n3)cc2)n(-c2ccccc2)n1 [Cpd 19]
11 | – | 19 | – | – | COC(=O)CCc1cc(-c2ccc(OCc3ccc4ccccc4n3)cc2)n(-c2ccccc2)n1 [Cpd 17]
12 | – | 15 | – | – | CN(O)C(=O)CCc1cc(-c2ccc(OCc3ccc4ccccc4n3)cc2)n(-c2ccc(Cl)cc2)n1 [Cpd 21]
13 | 5300 | 55 | – | – | ClCCc1cc(-c2ccc(Cl)cc2)n(-c2ccc(OCc3ccc4ccccc4n3)cc2)n1 [Cpd 4, 3-(2-Chloroethyl)-5-(4-chlorophenyl)-1-[4-(2-quinolyl)methoxyphenyl]pyrazole]
14 | 7400 | 19 | – | – | CCOC(=O)CCc1cc(-c2ccc(Cl)cc2)n(-c2ccc(OCc3ccc4ccccc4n3)cc2)n1 [Cpd 12]
15 | – | 0 | – | – | O=C(O)CCc1cc(-c2ccc(OCc3ccc4ccccc4n3)cc2)n(-c2ccc(Cl)cc2)n1 [Cpd 18]
16 | 840 | 21 | – | – | OCCCc1cc(-c2ccc(Cl)cc2)n(-c2ccc(OCc3ccc4ccccc4n3)cc2)n1 [Cpd 20]
17 | 1000 | 100 | – | – | CN(O)C(=O)CCc1cc(-c2ccc(Cl)cc2)n(-c2ccc(OCc3ccc4ccccc4n3)cc2)n1 [Cpd 22]
18 | 1100 | 93 | – | – | CN(O)C(=O)OCCc1cc(-c2ccc(Cl)cc2)n(-c2ccc(OCc3ccc4ccccc4n3)cc2)n1 [Cpd 5, 5-(4-Chlorophenyl)-3-[2-(N-hydroxy-N-methylcarbamoyloxy)]ethyl]-1-[4-(2-quinolyl)methoxyphenyl]pyrazole.0.05 Hydrate]
19 | 3900 | – | 8 | – | COc1ccc(-n2nc(CCC(=O)O)cc2-c2ccc(OCc3ccc4ccccc4n3)cc2)cc1 [Cpd 13]
20 | 3200 | 49 | – | – | O=CCCc1cc(-c2ccc(Cl)cc2)n(-c2ccc(OCc3ccc4ccccc4n3)cc2)n1 [Cpd 8]
21 | 1500 | 34 | – | – | CC(C)COC(=O)CCc1cc(-c2ccc(Cl)cc2)n(-c2ccc(OCc3ccc4ccccc4n3)cc2)n1 [Cpd 10]
